Common to all, as to format: cell-based
Experiment [1] relates to utricular epithelium from seven day-old rats. The experiment can be described thus: BrdU incorporation (mitogenic activity) in primary culture of infant rat utricular sensory epithelium. To be noted: for number of BrdU-positive nuclei per piece of epithelium: 50 ng/ml, seventy-two hours culture, infant (seven day-old) rat epithelium, control 50±7. The protocol: (§1) Sensory edithelial cells obtained from utricles in the inner ear of both seven day-old (infant) rats and six week-old (adult) rats were isolated with the use of thermolysin treatment; see Corwin et al., Abstracts of the Association for Research in Otolaryngology, Volume 18, page 87 (1995). All edges were trimmed away and the central portion of the epithelium was cut into quarters. Epithelial cells from the infant rats were cultured in DMEM/F12 with 10% FBS (Gibco BRL, Grand Island, N.Y.), and 3 micrograms per milliliter (μg/ml) of mitosis tracer BrdU (Aldrich Chemicals, Milwaukee, Wis.) for seventy-two hours, with or without 50 nanograms per milliliter (ng/ml) of the peptide of SEQ ID NO: 1 or 50 ng/ml of recombinant derived FGF-10, recombinant derived FGF-16, recombinant derived ciliary-derived neurotrophic factor (CNTF), recombinant derived neurotrophic growth facor (NGF), recombinant derived glial-derived neurotrophic factor (GDNF), recombinant derived keratinocyte growth factor (KGF), or a control (no growth factor present). The experiment was ended by fixing in 4% paraformaldehyde for one hour.
After several washes, the explants were immunostained for calretinin (a vestibular organ hair cell marker) using rabbit antiserum (SWant Swiss Antibodies, Belinzona, Switzerland), diluted 1:10,000. The secondary antibody was goat anti-rabbit immunoglobulin conjugated to biotin, diluted 1:1,000. Extensive washes were followed by incubating the explants with egg white avidin conjugated to Cy3, diluted 1:1,000. The explants were fixed again with paraformaldehyde as described above, then processed for BrdU immunostaining (a measure of cell proliferation) using standard immunostaining protocols. The mouse monoclonal ant-BrdU antibody was obtained from Caltag Laboratories of San Franscisco, Calif. The secondary antibody, a goat anti-mouse conjugated to FITC, was obtained from Antibodies, Inc. of Davis, Calif.
For orientation: Uptake of a labelled nucleoside into DNA is a usual measure of proliferation.

Experiment [2] deals with young rat utricular sensory epithelial cells. As to the kind of experiment: Comparison with other NDF/heregulins, BrdU-positive nuclei in primary culture. To be noted: 50 ng/ml, FIG. 5. The protocol:
as §1
After several washes, the explants were immunostained for calretinin (a vestibular organ hair cell marker) using rabbit antiserum (SWant Swiss Antibodies, Belinzona, Switzerland), diluted 1:10,000. […]

Experiment [3] deals with adult rat utricular epithelium. The experiment can be described thus: BrdU incorporation (mitogenic activity) in primary culture of adult rat utricular sensory epithelium. To be noted: adult (six week-old) rat, thirteen days culture, factor added for the last five days, BrdU last two days. The protocol: as §1
For the adult rats, the total time for cell culture was thirteen days, with the peptide of SEQ ID NO: 1 or other growth factor being added for the last five days and the BrdU ([…]) for the last two days. The experiment was ended as above by fixing the explants in paraformaldehyde. […]

For experiment [4], the system named is utricular cell line derived from a transgenic mouse. The experiment can be described thus: Cell proliferation by ELISA for BrdU in established utricular cell line. The settings on record: 50 ng/ml added twenty-four hours prior to fixation, BrdU final sixteen hours. The protocol: An established utricular cell line was derived from a transgenic mouse, using the procedure described by Gu et al. in Abstracts of the Association for Research in Otolaryngology, Volume 21, page 16 (1998). The cell line was cultured at 37° C. for three days in DMEM/F12 (Gibco BRL), containing N2 supplement (Sigma Chemical Company, St. Louis, Mo.) in a proportion of 1:100, under conditions restricting oncogene expression. For the treated group, fifty nanograms per milliliter of the peptide of SEQ ID NO: 1 were added twenty-four hours prior to fixation. Three micrograms per milliliter of BrdU (Aldrich Chemicals) were added for the final sixteen hours.
Cell proliferation was measured by ELISA for BrdU. Briefly, cells were fixed with 4% paraformaldehyde (Amersham, Life Sciences, Cleveland, Ohio) for one hour at room temperature. After treatment with 2N HCl for twenty minutes, the cells were washed and then sequentially incubated for one hour with a monocolonal antibody against BrdU (Caltag Laboratories) and horse anti-mouse antibody conjugated to biotin (Vector Laboratories, Burlingame, Calif.). After washing, the cells were further incubated with Europium streptavidin (Wallac Inc., Gaithersburg, Md.) diluted 1:1,000 and processed for time-resolved fluorescence in accordance with the manufacturer's recommendations. The signal was read on a Victor 1420 multi-label counter (Wallac Inc.).
A general note: ELISA stands for enzyme-linked immunosorbent assay.

As to “SHLVKCAEKEKTFCVNGGECFMVKDLSNPSRYLCKCQPGFTGARCQNYVMAS [SEQ ID NO: 1, hybrid form derived from the EGF-like domains of NDF-α and NDF-β]”, the “number of BrdU-positive nuclei per piece of epithelium” value (“number … per piece of epithelium” for short) in experiment [1] is listed as 397±33. Also, in experiment [1] (infant rat sensory epithelium primary culture, FIGS. 4A and 4B), the “presence of BrdU-positive nuclei in supporting cells versus control (untreated) cells” value is listed as “very noticeable increase”. The “increase in induction of cell proliferation over the control” value in experiment [2] was 29 fold. In experiment [3], the “increase in proliferation of adult rat sensory epithelial cells over the control group” value is given as 32.5 fold. Also, the “ELISA reading (BrdU) relative to control (untreated) group” value in experiment [4] was 1.7 times.
With “FGF-16: recombinant derived FGF-16 [reference compound]”, in experiment [1], the “number … per piece of epithelium” value was found to be 100±16.
Take “NGF: recombinant derived neurotrophic growth facor (NGF) [reference compound]”: in experiment [1], the “number … per piece of epithelium” value worked out at 50±9.

For the origin of these results see patent publication US6017886A, “Use of NDF peptide as growth factor for sensory epithelium” (Amgen Inc., priority 1999, dated 2000).
